Values quoted from earlier work in US20150086650A1 (priority 2012, published 2015).

Key:
[1] = rats

## CO/C=C(/C(=O)OC)c1ccccc1Oc1cc(Oc2ccccc2C#N)ncn1 [Azoxystrobin]
[1]
  acute oral LD50: more than 5,000 mg/kg
other
  inhalation toxicity classification: toxic by inhalation
